# Measured values from patent US20050101595A1, “N-containing cycloalkyl-substituted amino-thiazole derivatives and pharmaceutical compositions for inhibiting cell proliferation and methods for their use” (PFIZER INC., priority 2003, published 2005).
# Counter-ions that a name gives are not always drawn. Like-named read-outs stand apart in the source and are kept apart here.
# How the values were obtained:
# CDK2/Cyclin A = CDK2/Cyclin A (Homo sapiens, UniProt P24941); assay: Inhibition of CDK2/Cyclin A Retinoblastoma Kinase Activity; type: biochemical; details: for Ki: apparent Ki, CDK2/proteolyzed cyclin A, Rb fragment substrate, 25 μM ATP; for CDK2 % Inhibition At 0.03 μM: Table 2
# How it was run: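 CDK2 (10 or 19 nM), insect-cell expressed, gel-filtration purified with truncated cyclin A; Rb fragment substrate; 25 μM ATP; 10 mM HEPES pH 7.4, 10 mM MgCl2; 30° C, 60 or 75 min; EDTA stop; phosphocellulose/nitrocellulose capture, phosphorimager. % inhibition vs DMSO control, no-enzyme background subtracted.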
# [1] = biological target: human CDK4 and genetically truncated (1-264) cyclin D3 (Homo sapiens, UniProt P11802); assay: Inhibition of CDK4/Cyclin D Retinoblastoma Kinase Activity; type: biochemical; details: for Ki: apparent Ki, CDK4/truncated cyclin D3, Rb fragment substrate, 25 μM ATP
# Sequence of human CDK4 and genetically truncated (1-264) cyclin D3 (P11802 whole entry, the tested form may be a part): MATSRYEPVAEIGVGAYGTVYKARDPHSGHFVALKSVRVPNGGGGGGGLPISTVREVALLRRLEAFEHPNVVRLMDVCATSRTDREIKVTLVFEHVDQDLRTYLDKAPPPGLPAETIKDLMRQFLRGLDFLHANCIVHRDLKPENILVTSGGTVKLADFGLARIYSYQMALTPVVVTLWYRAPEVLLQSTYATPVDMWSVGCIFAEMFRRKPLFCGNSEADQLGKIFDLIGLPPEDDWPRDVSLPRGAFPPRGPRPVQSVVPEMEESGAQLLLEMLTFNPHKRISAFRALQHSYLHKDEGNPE
# Sequence of human CDK4 and genetically truncated (1-264) cyclin D3 (P30281 1-264 partner): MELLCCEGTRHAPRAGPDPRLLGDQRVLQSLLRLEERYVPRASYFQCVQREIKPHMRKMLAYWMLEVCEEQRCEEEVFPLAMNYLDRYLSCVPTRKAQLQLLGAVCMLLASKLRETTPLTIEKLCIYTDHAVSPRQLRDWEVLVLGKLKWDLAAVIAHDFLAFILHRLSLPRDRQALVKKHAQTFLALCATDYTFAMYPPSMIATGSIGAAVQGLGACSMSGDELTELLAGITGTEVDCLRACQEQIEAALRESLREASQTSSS
# How it was run: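 The enzyme complex (5 nM), expressed in co-infected insect cells, was incubated with recombinant Rb fragment, 25 μM radiolabelled ATP and 2% DMSO at 30 °C. Reactions were stopped with EDTA after 20 minutes, or 60 minutes for tight-binding inhibitors. Apparent Ki values came from competitive inhibition fits.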
# HCT-116 cell line = assay: Inhibition of cell growth, tetrazolium salt (MTT) assay; type: cell-based; details: for HCT-116 % Inhibition at 0.25 μM: 0.25 μM compound; for IC50: Homo sapiens, HCT-116, 120 h, MTT, three to five days, read-out: HCT-116 IC50
# How it was run: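 McCoy's 5A cultures; 4 h pre-incubation; compound dilutions in 0.5% v/v DMSO; 3–5 d, 37° C, 5% CO2; MTT 0.2 mg/mL final, 4 h; formazan dissolved in DMSO, A540; vs 0.5% DMSO vehicle.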
# [2] = 0.1 μM compound, HCT-116, Table 3
smiles,measurement,setting,value
Nc1nc(NC2CCN(C(=O)c3ccc4ccccc4c3)CC2)sc1C(=O)c1c(F)cccc1F [Example Q63],CDK2 % Inhibition at 0.03 μM,"CDK2/Cyclin A; 0.03 μM compound, Table 4",39%
same,CDK4 % Inhibition at 0.03 μM,"[1]; 0.03 μM compound, Table 4",57%
same,HCT-116 % Inhibition at 0.1 μM,"HCT-116 cell line; 0.1 μM compound, HCT-116, Table 4",5%
same,HCT-116 % Inhibition at 0.25 μM,"HCT-116 cell line; HCT-116, Table 4",25%
CN(C)S(=O)(=O)N1CCC(Nc2nc(N)c(C(=O)c3c(F)cccc3F)s2)CC1 [Example P7],CDK2 % Inhibition at 0.03 μM,"CDK2/Cyclin A; 0.03 μM compound, Table 3",49%
same,CDK4 % Inhibition at 0.03 μM,"[1]; 0.03 μM compound, Table 3",47%
same,HCT-116 % Inhibition at 0.1 μM,HCT-116 cell line; [2],25%
same,HCT-116 % Inhibition at 0.25 μM,"HCT-116 cell line; HCT-116, Table 3",23%
"Nc1nc(NC2CCN(S(=O)(=O)c3ccc(N4CCC(O)CC4)nc3)CC2)sc1C(=O)c1c(F)cccc1F [Example G9, 1-{4-Amino-2-[1-(4Hydroxy-3,4,5,6-tetrahydro-2H-[1,2′]bipyridinyl-5′-sulfonyl)-piperidin-4-ylamino]-thiazol-5-yl}-1-(2,6-difluoro-phenyl)-methanone]",Ki,CDK2/Cyclin A,0.52 nM
same,Ki,[1],2.2 nM
same,IC50,HCT-116 cell line; first HCT-116 column (c4),170 nM
same,IC50,HCT-116 cell line; second HCT-116 column (c5),1800 nM
CCOC(=O)c1cccc(NC(=O)N2CCC(Nc3nc(N)c(C(=O)c4c(F)cccc4F)s3)CC2)c1 [Example O46],CDK2 % Inhibition At 0.03 μM,CDK2/Cyclin A; 0.03 μM compound,29%
same,CDK4 % Inhibition at 0.03 μM,"[1]; 0.03 μM compound, Table 2",15%
same,HCT-116 % Inhibition at 0.25 μM,"HCT-116 cell line; HCT-116, Table 2",41%
CSc1ccc(C(=O)N2CCC(Nc3nc(N)c(C(=O)c4c(F)cccc4F)s3)CC2)cc1 [Example R150],CDK2 % Inhibition at 0.03 μM,CDK2/Cyclin A; at 0.03 μM,40%
same,CDK4 % Inhibition at 0.03 μM,[1]; at 0.03 μM,62%
same,HCT-116 % Inhibition at 0.1 μM,"HCT-116 cell line; HCT-116 cells, at 0.1 μM",2%
same,HCT-116 5 Inhibition at 0.25 μM,HCT-116 cell line; HCT-116 cells,39
COc1cc(NC(=O)N2CCC(Nc3nc(N)c(C(=O)c4c(F)cccc4F)s3)CC2)cc(OC)c1OC [Example O44],CDK2 % Inhibition At 0.03 μM,CDK2/Cyclin A; 0.03 μM compound,22%
same,CDK4 % Inhibition at 0.03 μM,"[1]; 0.03 μM compound, Table 2",12%
same,HCT-116 % Inhibition at 0.25 μM,"HCT-116 cell line; HCT-116, Table 2",29%
Nc1nc(NC2CCN(C(=O)CSc3ccccc3)CC2)sc1C(=O)c1c(F)cccc1F [Example R32],CDK2 % Inhibition at 0.03 μM,CDK2/Cyclin A; at 0.03 μM,38%
same,CDK4 % Inhibition at 0.03 μM,[1]; at 0.03 μM,65%
same,HCT-116 % Inhibition at 0.1 μM,"HCT-116 cell line; HCT-116 cells, at 0.1 μM",0%
same,HCT-116 5 Inhibition at 0.25 μM,HCT-116 cell line; HCT-116 cells,48
"CN1CCCC1c1ccc(S(=O)(=O)N2CCC(Nc3nc(N)c(C(=O)c4c(F)cccc4F)s3)CC2)cc1 (stereo not shown) [Example F24, 1-[4-Amino-2-{1-[4-(1-methyl-pyrrolidin-2-y)-benzenesulfonyl]-piperidin-4-ylamino}-thiazol-5-yl)-1-(2,6-difluoro-phenyl)-methanone Dihydrochloride]",Ki,CDK2/Cyclin A,< 1 nM
same,Ki,[1],0.34 nM
same,IC50,HCT-116 cell line; first HCT-116 column (c4),590 nM
same,IC50,HCT-116 cell line; second HCT-116 column (c5),1600 nM
CCCCOc1ccc(C(C)(C)CC(C)(C)C)cc1S(=O)(=O)N1CCC(Nc2nc(N)c(C(=O)c3c(F)cccc3F)s2)CC1 [Example P73],CDK2 % Inhibition at 0.03 μM,"CDK2/Cyclin A; 0.03 μM compound, Table 3",−28%
same,CDK4 % Inhibition at 0.03 μM,"[1]; 0.03 μM compound, Table 3",1%
same,HCT-116 % Inhibition at 0.1 μM,HCT-116 cell line; [2],16%
same,HCT-116 % Inhibition at 0.25 μM,"HCT-116 cell line; HCT-116, Table 3",30%
Nc1nc(NC2CCN(S(=O)(=O)c3ccc(CNC(=O)c4ccccc4)s3)CC2)sc1C(=O)c1c(F)cccc1F [Example P40],CDK2 % Inhibition at 0.03 μM,"CDK2/Cyclin A; 0.03 μM compound, Table 3",61%
same,CDK4 % Inhibition at 0.03 μM,"[1]; 0.03 μM compound, Table 3",64%
same,HCT-116 % Inhibition at 0.1 μM,HCT-116 cell line; [2],7%
same,HCT-116 % Inhibition at 0.25 μM,"HCT-116 cell line; HCT-116, Table 3",33%
COC(=O)c1ccccc1S(=O)(=O)N1CCC(Nc2nc(N)c(C(=O)c3c(F)cccc3F)s2)CC1 [Example P28],CDK2 % Inhibition at 0.03 μM,"CDK2/Cyclin A; 0.03 μM compound, Table 3",55%
same,CDK4 % Inhibition at 0.03 μM,"[1]; 0.03 μM compound, Table 3",56%
same,HCT-116 % Inhibition at 0.1 μM,HCT-116 cell line; [2],7%
same,HCT-116 % Inhibition at 0.25 μM,"HCT-116 cell line; HCT-116, Table 3",28%
COc1ccc(O)c(C(=O)N2CCC(Nc3nc(N)c(C(=O)c4c(F)cccc4F)s3)CC2)c1 [Example R121],CDK2 % Inhibition at 0.03 μM,CDK2/Cyclin A; at 0.03 μM,57%
same,CDK4 % Inhibition at 0.03 μM,[1]; at 0.03 μM,60%
same,HCT-116 % Inhibition at 0.1 μM,"HCT-116 cell line; HCT-116 cells, at 0.1 μM",0%
same,HCT-116 5 Inhibition at 0.25 μM,HCT-116 cell line; HCT-116 cells,37
